Measured values reported in article PMC8724172, “The effect of potent CYP2D6 inhibition on the pharmacokinetics and safety of deutetrabenazine in healthy volunteers” (European Journal of Clinical Pharmacology, 2021).
Blank lines part the entries; values can stand above or below the compound they belong to.

Columns and labels:
[1] = Safety assessments (adverse events, ECG, C-SSRS) in the drug-drug interaction study
Description: Subjects checked into the clinic on day 1 and were confined through day 14. […] Subjects then received paroxetine on days 4 to 12 to achieve steady-state plasma concentrations of paroxetine by day 11. On day 11, another single dose of deutetrabenazine was administered. Triplicate 12-lead digital electrocardiograms (ECGs) were collected predose and for 10 h following deutetrabenazine dosing on day 1, and for 10 h on day 11, following paroxetine administration on day 10. […] Blood and urine samples were collected for clinical laboratory testing (hematology, serum chemistries, and urinalysis) at admission and after at least 10 h fasting and at study completion on day 14 or upon early withdrawal.

[2] = Open-label sequential drug-drug interaction study: plasma pharmacokinetics of deutetrabenazine and its metabolites without and with steady-state paroxetine; conditions: for % Ratio of LS means (90% CI) (day 11)/(day 1), AUC0−t / % Ratio of LS means (90% CI) (day 11)/(day 1), AUC0−∞ / % Ratio of LS means (90% CI) (day 11)/(day 1), Cmax: deutetrabenazine + paroxetine vs deutetrabenazine alone; for Increase of half-life (t1/2) in presence of paroxetine / Increase of AUC0–∞ in presence of paroxetine / Increase of Cmax in presence of paroxetine: deutetrabenazine 22.5 mg; for Increase of half-life (t1/2) in presence of paroxetine: steady-state paroxetine vs alone; for Increase of AUC0–∞ in presence of paroxetine / Increase of Cmax in presence of paroxetine: population of 15 EM and 8 IM, steady-state paroxetine 20 mg daily vs alone
Excerpt: This was an open-label sequential drug-drug interaction study in 24 healthy adult subjects who were CYP2D6 extensive metabolizers (EM) or CYP2D6 intermediate metabolizers (IM); Supplemental Table S1 provides the genotypes and phenotypes of the subjects.
Subjects checked into the clinic on day 1 and were confined through day 14. […] Those who met inclusion/exclusion criteria received a single dose of deutetrabenazine on day 1 followed by a 72-h washout. Subjects then received paroxetine on days 4 to 12 to achieve steady-state plasma concentrations of paroxetine by day 11. On day 11, another single dose of deutetrabenazine was administered. Triplicate 12-lead digital electrocardiograms (ECGs) were collected predose and for 10 h following deutetrabenazine dosing on day 1, and for 10 h on day 11, following paroxetine administration on day 10. Blood samples for measurement of plasma concentrations of deutetrabenazine and its metabolites were obtained on days 1 and 11 (predose, 1, 2, 2.5, 3, 3.5, 4, 4.5, 5, 6, 7, 8, 10, 12, and 16 h), days 2 and 12, at 24 and 36 h, days 3 and 13, at 48 and 60 h and days 4 and 14, at 72 h. Paroxetine trough levels were obtained pre-dose on days 9, 10, 11, and 12, and on day 13 at 24 h post the final paroxetine dose on day 12. Blood and urine samples were collected for clinical laboratory testing (hematology, serum chemistries, and urinalysis) at admission and after at least 10 h fasting and at study completion on day 14 or upon early withdrawal.
All participants received the following treatments, deutetrabenazine 22.5-mg oral dose as one 15-mg tablet + one 7.5-mg tablet on days 1 and 11 and one paroxetine 20 mg (Cadila Healthcare Ltd.) oral tablet on days 4 through 12. The deutetrabenazine 22.5-mg dose was administered with 237 mL of water in the morning approximately 30 min after a standardized breakfast meal with moderate fat content (35%). No food was allowed for at least 4 h postdose, and subjects were asked to remain upright for at least 4 h postdose, unless medically necessary.
Paroxetine 20 mg was administered in the morning with 237 mL water for 9 days (days 4 to 12) to ensure steady-state levels. On days 4 to 10 and 12, the paroxetine dose was administered in a fed state 30 min after breakfast. On day 11, as paroxetine can be administered without regard to food, subjects took the paroxetine dose under fasting conditions (at least 1 h prior to breakfast and 1.5 h prior to deutetrabenazine administration) following an overnight fast of at least 10 h. Subjects were asked to remain upright for at least 1 h after the paroxetine dose, unless medically necessary.
Validated liquid chromatography/tandem mass spectrometry methods were applied to assess plasma concentrations of paroxetine, deutetrabenazine, α- and β-HTBZ metabolites, and the O-desmethyl metabolites of α- and β-HTBZ. This was performed on a Sciex API 4000 instrument, equipped with a Turbo Ion Spray ion source operated in the positive ion mode and interfaced to a Shimadzu HPLC system fitted with a Waters XBridge C18 reverse phase column (3.5 µm; 50 × 2.1 mm) for paroxetine, deutetrabenazine, α-HTBZ and β-HTBZ or a Phenomenex Kinetex column (2.6 µm; 100 × 2.1 mm) for the O-desmethyl metabolites. The validated assay ranges were as follows: paroxetine 0.500 to 50.0 ng/mL, deutetrabenazine 0.100 to 10.0 ng/mL, deuterated α- and β-HTBZ 0.500 to 100 ng/mL, and 9-O- and 10-O-desmethyl metabolites of α-HTBZ and β-HTBZ 0.5 to 50.0 ng/mL. The methods were developed and validated by CPR Pharma Services, Pty, Ltd Australia, as described earlier.
Plasma concentrations, below the limit of quantitation (BLQ) of the assay, were designated a value of zero for initial and time points occurring at the end of the profile. For sampling time points between two quantifiable concentrations, plasma concentrations BLQ followed by a measurable concentration were set to the limit of quantitation of the assay.

[3] = cited from earlier work; for Increase in exposure with paroxetine: after tetrabenazine administration
[4] = adverse events by treatment period, 24 subjects dosed
[5] = paroxetine administered with tetrabenazine
[6] = Subjects with EM phenotype (n = 15)
[7] = Subjects with IM phenotype (n = 8)

Mean plasma concentrations in the presence and absence of paroxetine ([2]; deutetrabenazine 22.5 mg oral, day 11 vs day 1): comparable
Cmax ([2]; human, in vivo): 0.3 (44) ng/mL
Tmax ([2]; human, in vivo): 3.5 (1.0–6.0) h
AUC0-t ([2]; human, in vivo, im): 1.0 (55) ng × h/mL
Cmax ([2]; human, in vivo, im): 0.5 (66) ng/mL
Tmax ([2]; human, in vivo, im): 3.5 (1.0–6.0) h
Cmax ([2]; human, in vivo, po, 22.5 mg): 0.4 (60) ng/mL
SMILES: [2H]C([2H])([2H])Oc1cc2c(cc1OC([2H])([2H])[2H])C1CC(=O)C(CC(C)C)CN1CC2 (centres unmarked) [Deutetrabenazine]
Back pain [1, 4]: 0 (0%) n (%)
Chest discomfort [1, 4]: 0 (0%) n (%)
Decreased appetite [1, 4]: 0 (0%) n (%)
Dizziness [1, 4]: 1 (4%) n (%)
Feeling abnormal [1, 4]: 0 (0%) n (%)
Feeling hot [1, 4]: 0 (0%) n (%)
Gastrointestinal Disorders [1, 4]: 0 (0%) n (%)
General Disorders and Administration Site Conditions [1, 4]: 0 (0%) n (%)
Gingival pain [1, 4]: 0 (0%) n (%)
Headache [1, 4]: 0 (0%) n (%)
Hypoaethesia oral [1, 4]: 0 (%) n (%)
Local swelling [1, 4]: 0 (0%) n (%)
Metabolism and Nutritional disorders [1, 4]: 0 (0%) n (%)
Muscle tightness [1, 4]: 0 (0%) n (%)
Musculoskeletal and Connective Tissue Disorders [1, 4]: 0 (0%) n (%)
Nausea [1, 4]: 0 (0%) n (%)
Nervous System Disorders [1, 4]: 1 (4%) n (%)
Paraesthesia oral [1, 4]: 0 (0%) n (%)
Sensation of foreign body [1, 4]: 0 (0%) n (%)
Sensation of heaviness [1, 4]: 0 (0%) n (%)
Swollen tongue [1, 4]: 0 (0%) n (%)
Vomiting [1, 4]: 0 (0%) n (%)
Subjects with AEs, n (%) ([1]; by treatment period, 24 subjects dosed): 3 (13%) n (%)
Infections and Infestations ([1]; in vivo): 0 (0%) n (%)
Viral Infections ([1]; in vivo): 0 (0%) n (%)
Safety and tolerability ([1]; single doses of 22.5 mg, alone or in the presence of steady-state paroxetine (20 mg daily), healthy subjects): safe and generally well tolerated

Steady-state exposure (mean trough plasma concentrations, visual inspection) ([2]; paroxetine 20 mg oral daily on days 4–12): achieved on day 10
SMILES: Fc1ccc([C@@H]2CCNC[C@H]2COc2ccc3c(c2)OCO3)cc1 [Paroxetine, reference compound]
Back pain [1, 4]: 1 (4%) n (%)
Chest discomfort [1, 4]: 1 (4%) n (%)
Decreased appetite [1, 4]: 3 (13%) n (%)
Dizziness [1, 4]: 1 (4%) n (%)
Feeling abnormal [1, 4]: 1 (4%) n (%)
Feeling hot [1, 4]: 1 (4%) n (%)
Gastrointestinal Disorders [1, 4]: 5 (21%) n (%)
General Disorders and Administration Site Conditions [1, 4]: 5 (21%) n (%)
Gingival pain [1, 4]: 1 (4%) n (%)
Headache [1, 4]: 5 (21%) n (%)
Hypoaethesia oral [1, 4]: 1 (4%) n (%)
Infections and Infestations [1, 4]: 1 (4%) n (%)
Local swelling [1, 4]: 1 (4%) n (%)
Metabolism and Nutritional disorders [1, 4]: 3 (13%) n (%)
Muscle tightness [1, 4]: 1 (4%) n (%)
Nervous System Disorders [1, 4]: 7 (29%) n (%)
Paraesthesia oral [1, 4]: 1 (4%) n (%)
Sensation of foreign body [1, 4]: 1 (4%) n (%)
Sensation of heaviness [1, 4]: 0 (0%) n (%)
Viral Infections [1, 4]: 1 (4%) n (%)
Headache, subjects reporting ([1]; most common AE, reported 8 times by 7 subjects overall): 5 subjects

% Ratio of LS means (90% CI) (day 11)/(day 1), AUC0−t ([2]; All subjects (n = 23)): 163.3 (148.3–179.8) %
% Ratio of LS means (90% CI) (day 11)/(day 1), AUC0−∞ ([2]; All subjects (n = 23)): 169.8 (153.8–187.5) %
% Ratio of LS means (90% CI) (day 11)/(day 1), Cmax ([2]; All subjects (n = 23)): 106.3 (90.0–125.4) %
% Ratio of LS means (90% CI) (day 11)/(day 1), AUC0−t [2, 6]: 181.6 (162.4–302.0) %
% Ratio of LS means (90% CI) (day 11)/(day 1), AUC0−∞ [2, 6]: 185.0 (165.8–206.4) %
% Ratio of LS means (90% CI) (day 11)/(day 1), Cmax [2, 6]: 119.9 (108.1–132.9) %
% Ratio of LS means (90% CI) (day 11)/(day 1), AUC0−t [2, 7]: 192.2 (162.9–226.8) %
% Ratio of LS means (90% CI) (day 11)/(day 1), AUC0−∞ [2, 7]: 193.6 (164.4–228.0) %
% Ratio of LS means (90% CI) (day 11)/(day 1), Cmax [2, 7]: 127.8 (111.8–146.1) %
Increase of half-life (t1/2) in presence of paroxetine [2]: 1.5 fold
Cmax ([2]; human, in vivo): 35.8 (21) ng/mL
AUC0–∞ ([2]; human, in vivo, im): 546 (22) ng × h/mL
Cmax ([2]; human, in vivo, im): 40.5 (22) ng/mL
Tmax ([2]; human, in vivo, im): 4.0 (2.0–7.0) h
t1/2 ([2]; human, in vivo, im): 13.0 (23) h
Cmax ([2]; human, in vivo, po, 22.5 mg): 37.4 (22) ng/mL
Increase of AUC0–∞ in presence of paroxetine [2]: 1.8 fold
Increase of Cmax in presence of paroxetine [2]: 1.2 fold
SMILES: COc1cc2c(cc1OC)[C@@H]1C[C@H](O)[C@@H](CC(C)C)CN1CC2 [α-HTBZ]
Increase in exposure with paroxetine [3]: threefold
Increase of Cmax with paroxetine [3, 5]: 1.3 fold

% Ratio of LS means (90% CI) (day 11)/(day 1), AUC0−t ([2]; All subjects (n = 23)): 484.7 (355.2–661.5) %
% Ratio of LS means (90% CI) (day 11)/(day 1), AUC0−∞ ([2]; All subjects (n = 23)): 520.6 (388.9–697.0) %
% Ratio of LS means (90% CI) (day 11)/(day 1), Cmax ([2]; All subjects (n = 23)): 154.3 (126.0–189.0) %
% Ratio of LS means (90% CI) (day 11)/(day 1), AUC0−t [2, 6]: 641.3 (537.3–765.4) %
% Ratio of LS means (90% CI) (day 11)/(day 1), AUC0−∞ [2, 6]: 649.9 (549.6–768.5) %
% Ratio of LS means (90% CI) (day 11)/(day 1), Cmax [2, 6]: 216.4 (185.0–253.2) %
% Ratio of LS means (90% CI) (day 11)/(day 1), AUC0−t [2, 7]: 744.6 (605.3–915.8) %
% Ratio of LS means (90% CI) (day 11)/(day 1), AUC0−∞ [2, 7]: 731.5 (595.0–899.3) %
% Ratio of LS means (90% CI) (day 11)/(day 1), Cmax [2, 7]: 259.2 (216.7–310.1) %
Increase of half-life (t1/2) in presence of paroxetine [2]: 2.7 fold
Cmax ([2]; human, in vivo): 20.4 (33) ng/mL
AUC0–∞ ([2]; human, in vivo, im): 333 (75) ng × h/mL
Cmax ([2]; human, in vivo, im): 32.6 (22) ng/mL
Tmax ([2]; human, in vivo, im): 4.0 (2.0–8.0) h
t1/2 ([2]; human, in vivo, im): 7.9 (50) h
Cmax ([2]; human, in vivo, po, 22.5 mg): 24.6 (38) ng/mL
Increase of AUC0–∞ in presence of paroxetine [2]: 5.6 fold
Increase of Cmax in presence of paroxetine [2]: 2.1 fold
SMILES: COc1cc2c(cc1OC)[C@H]1C[C@H](O)[C@H](CC(C)C)CN1CC2 [β-HTBZ]
Increase in exposure with paroxetine [3]: ninefold
Increase of AUC with paroxetine [3, 5]: ninefold
